Reference: patent publication US20020123524A1, “Treatment of vascular events using lipid-modifying compositions” (priority 1998, published 2002)

Columns and labels:
[1] = VA-HIT trial: percent change in plasma lipids with gemfibrozil vs placebo; assay type: in vivo, men; details: for Effect on HDL-C level (in words): compared to controls treated with placebo
Description: Lipoproteins levels and triglyceride levels are measured and assessed using routine methods known in the art. Commercially available kits and assays may be used to evaluate the level of HDL-C, LDL-C and level of triglyceride.
(§1) This study, the Veterans Administration HDL-C Intervention Trial (VA-HIT), was a seven year, 20 center, randomized, placebo-controlled, double blind secondary prevention trial designed to determine if a fibric acid (e.g., gemfibrozil) reduced the incidence of myocardial infarction (MI) and CHD death in male patients who have low levels of both HDL-C and LDL-C. […] Primary endpoints and the secondary endpoint, stroke, were adjudicated by blinded committees using standard criteria. Gemfibrozil (1200mg/day, orally) was selected with the goal of raising HDL-C and lowering triglycerides (TG) without affecting LDL-C.
(§2) “Low HDL-C” was defined as less than 40 mg/dL and “low LDL-C” was defined as less than 140 mg/dL values which are based on the entrance lipid criteria for the population enrolled in VA-HIT. With these lipid criteria, the mean entrance value at baseline of HDL-C was 32 mg/dL and of LDL-C was 111 mg/dL.
(§3) 2531 patients were enrolled and followed for a median of 5 years. Compliance, lipid changes, endpoints rates, losses to follow-up, and crossovers to active treatment have been consistent with the original projections. At baseline, the mean age was 64 yrs; average lipid values were, in mg/dL: HDL-C 32; TG 161; LDL-C 111; total cholesterol 176. (For comparison, the mean baseline LDL-C in recent major secondary prevention trials was 189 in the Scandinavian Simvastatin Survival Study, 139 in the Cholesterol and Recurrent Events study, and 150 in the Long-Term Intervention with Pravastatin in Ischemic Disease study). The mean body mass index was 29±5. The prevalence of diabetes was 31% and of hypertension 57%. Aspirin and beta blockers were used by 82%, and 43% of patients, respectively.
(§4) VA-HIT was a major clinical trial to investigate whether lipid therapy benefits people with heart disease whose primary lipid abnormality is a low level of HDL-C. The VA-HIT study enrolled 2531 male veterans with heart disease who had low levels of LDL-C cholesterol and low levels of HDL-C cholesterol. The average LDL-C level was 111 mg/dL and HDL-C was 32 mg/dL. Patients were randomly assigned to receive either gemfibrozil or a placebo.
(§5) 2531 men with CHD enrolled in trial 1991-1993. The trial ended 7/31/98 with median follow-up of 5.1 years. Vital status of patients known is 99.2%. 71% remained on assigned therapy at end of trial which is about the average in a long trial.

[2] = VA-HIT trial: CHD death, nonfatal MI, stroke and other clinical endpoints, adverse events; assay type: in vivo; details: for Relative risk reduction, CHD death/nonfatal MI (heart attacks and cardiac deaths): primary endpoint, p=0.0063
From the text: as §1, §2, §3, §4
The reduction in the incidence or severity of vascular disease was determined by comparing data from individuals undergoing the methods of the present invention to those who were not. Data regarding the incidence or occurrence of a vascular event including death were obtained from control patients having the same or similar disease states under the same or similar conditions as the individual undergoing the methods of the present invention. The control patient received a placebo, as opposed to the test patients who received the lipid modifying drug.
as §5

[3] = VA-HIT subgroup analysis: diabetes and hyperinsulinemia, CHD and stroke events, mortality; assay type: in vivo, men; set-up: Overall Risk Reduction with Gemfibrozil (cardiovascular or cerebrovascular event) / Overall Risk Reduction with Gemfibrozil: concentration or dose not given beside the values; details: for Five Year Event Rate, Stroke / Five Year Event Rate, CHD: Gemfibrozil Group
From the text: Determining whether an individual has Type 2 diabetes and/or hyperinsulinemia can be done using assays that are well known in the art. Several assays are commercially available. The levels that define whether an individual has Type 2 diabetes or hyperinsulinemia vary depending on the type of assay used. An example of an assay that can measure glucose tolerance or glucose levels is one that uses glucose oxidase as a reagent. Using such a test, levels of fasting glucose of greater than or equal to about 126 mg/dL characterize a type 2 diabetic. An assay referred to as “Coat-A-Count” (Diagnostic Products, Los Angeles, Calif.) is an example of an assay that measures insulin. Levels of fasting insulin above about 40 μU/mL using the Coat-A-Count assay are levels that characterize an individual with hyperinsulinemia. For the data described in Example 2, insulin resistance (hyperinsulinemia) was defined by the levels of insulin determined in the Framingham Offspring Population. Meigs J B, et al., Metabolic Risk Factors Worsen Continuously Across the Spectrum of Nondiabetic Glucose Tolerance, The Framingham Offspring Study. Ann Intern Med 128:524-533 (1998). Subjects, described in Example 2, were designated as diabetic by having a history of diabetes or a fasting plasma glucose of about 126 mg/dL or greater and as being hyperinsulinemic with a fasting plasma insulin of about 40 μU/mL or greater. This value of insulin marked the 90th percentile of values for subjects with normal glucose tolerance in the Framingham Offspring Study. This value also corresponded to the level of insulin at which there was a significant increase in CHD events in Example 2.
Fibric acid decreases incidence of vascular events in diabetic patients (e.g., events that cause the heart to have irregular rhythms such as ventricular fibrillation, ventricular tachycardia, asystole, and includes, for example, myocardial infarction, angina, and death).
Diabetes mellitus (DM) has long been recognized as a major risk factor for a vascular atherothrombotic event, most particularly coronary heart disease and cerebrovascular disease. […] Although patients with DM were not singled out as a specific recruitment target (i.e., not a specific target for fibrate therapy in VA-HIT), patients with DM frequently have a low HDL-C and, thus, were clearly eligible for VA-HIT and treatment with the fibrate, genfibrozil.
Thus, 31% of VA-HIT patients had diabetes. […] There is evidence that patients with high insulin levels (i.e., patients with “hyperinsulinemia” or “insulin resistance”) but without overt DM have as high a risk of coronary heart disease as is associated with DM itself. Consequently, 47% of patients in VA-HIT had either DM or hyperinsulinemia and in this large subgroup of patients, both coronary heart disease (CHD) events and stroke were higher than in the remainder of VA-HIT patients and the benefit of fibrate therapy was greater.

[4] = gemfibrozil 1200 mg/day orally, men with CHD, low HDL-C and low LDL-C, statistically significant difference vs placebo

## Cc1ccc(C)c(OCCCC(C)(C)C(=O)O)c1 [Gemfibrozil, 5-(2,5-dimethylphenoxy)-2,2-dimethylpentanoic acid]
[1]
  Effect on HDL-C level (in words): significantly raised
[1]; listed as gemfibrozil
  Effect on HDL-C level (in words): significantly increased
[1]; compared to placebo
  Effect on LDL-C level (in words): did not lower
  Effect on triglycerides (in words): lowered
[1]; compared to placebo, listed as gemfibrozil
  Effect on LDL-C level (in words): no effect
[1]; gemfibrozil 1200 mg/day orally, men with CHD, low HDL-C and low LDL-C, not marked significant
  Percent change in Lipids: LDL-C: +3.6%
[1]; [4]
  Percent change in Lipids: HDL-C: +7.5%
  Percent change in Lipids: Triglycerides: −24.5%
  Percent change in Lipids: total cholesterol: −2.9%
[2]; both diabetics and non-diabetics, younger as well as older patients
  Effectiveness in subgroups (in words): effective
[2]; gemfibrozil 1200 mg/day
  New or recurrent CHD events, including nonfatal MI, CHD death, certain forms of stroke or TIA (in words): significant reduction
[2]; gemfibrozil 1200 mg/day, median follow-up 5.1 years, placebo 22%
  Primary endpoint CHD death/nonfatal MI, rate in treatment group: 17%
[2]; gemfibrozil 1200 mg/day, seven year study
  Major adverse events (deaths from any cause and cancer monitored): not associated with any major adverse events
[2]; gemfibrozil group, placebo 3.5%
  Incidence rate: carotid endarterectomy: 1.3%
[2]; gemfibrozil group, placebo 4.2%
  Incidence rate: transient ischemia attack (TIA): 1.7%
[2]; gemfibrozil group, placebo 7.0%
  Incidence rate: total reported stroke: 5.0%
[2]; gemfibrozil group, placebo 13.3%
  Incidence rate: hospitalization for congestive heart failure: 10.6%
[2]; gemfibrozil vs placebo, p=0.0011
  Reduction in combined endpoint of heart attacks, cardiac deaths, and strokes: 24%
[2]; gemfibrozil vs placebo, listed as GEMFIBROZIL
  Relative risk reduction, CHD death/nonfatal MI (heart attacks and cardiac deaths): 22%
[2]; gemfibrozil vs placebo, listed as gemfibrozil
  Relative risk reduction, CHD death/nonfatal MI (heart attacks and cardiac deaths): 22%
[2]; over a time period (e.g., between 1 and 5 years)
  Number of patients needed to be treated to prevent one heart attack, cardiac death, or stroke: 18 patients
[3]; Diabetes + Hyperinsulinemia alone, N 1157, P 0.021
  RRR (relative risk reduction with gemfibrozil), All-Cause Mortality: 26%
[3]; Diabetes, N 769, P 0.016
  RRR (relative risk reduction with gemfibrozil), CHD Death: 41%
[3]; Diabetes, N 769, P 0.059
  RRR (relative risk reduction with gemfibrozil), All-Cause Mortality: 25%
[3]; subgroup All Others, placebo 4.0
  Five Year Event Rate, Stroke: 3.2%
[3]; subgroup All Others, placebo 16.6
  Five Year Event Rate, CHD: 15.3%
[3]; subgroup Diabetes, placebo 10.5
  Five Year Event Rate, Stroke: 6.6%
[3]; subgroup Diabetes, placebo 29.4
  Five Year Event Rate, CHD: 21.2%
[3]; subgroup Hyperinsulinemia (includes hyperinsulinemia + diabetes), placebo 8.1
  Five Year Event Rate, Stroke: 6.2%
[3]; subgroup Hyperinsulinemia (includes hyperinsulinemia + diabetes), placebo 27.7
  Five Year Event Rate, CHD: 20.9%
[3]; subgroup Hyperinsulinemia alone, placebo 4.3
  Five Year Event Rate, Stroke: 4.7%
[3]; subgroup Hyperinsulinemia alone, placebo 23.1
  Five Year Event Rate, CHD: 16.8%
[3]; patients with DM and isolated hyperinsulinemia analysed together
  5-year incidence rate of all-cause mortality (in words): significantly reduce
[3]; subgroup All Others
  Overall Risk Reduction with Gemfibrozil: 10.3%
[3]; subgroup Diabetes
  Overall Risk Reduction with Gemfibrozil (cardiovascular or cerebrovascular event): 30.3%
[3]; subgroup Hyperinsulinemia (includes hyperinsulinemia + diabetes)
  Overall Risk Reduction with Gemfibrozil: 24.2%
[3]; subgroup Hyperinsulinemia alone
  Overall Risk Reduction with Gemfibrozil: 21.7%
[3]; subgroup of patients with DM and hyperinsulinemia
  Reduction of CHD death (in words): particularly effective
